Data taken from US10583084B2, “Liposomal formulations for delivery of nucleic acids” (RAMOT AT TEL-AVIV UNIVERSITY LTD., priority 2014, dated 2020).

Tests used:
[1] = lipid pKa of cationic lipids

Structure (SMILES): CCCCC/C=C\C/C=C\CCCCCCCCC1(CCCCCCCC/C=C\C/C=C\CCCCC)OCC(CCN(C)C)O1 (centres unmarked) [DLin-KC2-DMA, 2,2-Dilinoleyl-4-(2-dimethylaminoethyl)-[1,3]-dioxolane]
- pKa (physchem): ~6.7

Structure (SMILES): CCCCC/C=C\C/C=C\CCCCCCCCOCC(CN(C)C)OCCCCCCCC/C=C\C/C=C\CCCCC (centres unmarked) [DLinDMA]
- lipid pKa [1]: 6.8
